Data on four compounds can be found in patent US20230233569A1 (Revolution Medicines, Inc., priority 2020, published 2023).

Broadly, the IC50 is the midpoint of a concentration-inhibition curve.

The test system of one assay is Capan-1 (K-Ras G12V). As to the kind of experiment: CellTiter-Glo cell viability assay, 5-day treatment. Particulars: Homo sapiens, CAPAN-1, 120 h, 5-day treatment; read-out: Capan-1 Cell Viability assay data (K-Ras G12V, IC50). The format is cell-based. In short, it runs like this:
(§1)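 Luminescence read-out after 5 days of compound exposure, with plates first brought to room temperature for roughly 30 minutes. Values are percent of averaged DMSO wells, fitted by four-parameter logistic regression.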

A further assay relates to NCI-H358 (K-Ras G12C). The description is as above. Particulars: Homo sapiens, NCI-H358, 120 h, 5-day treatment; read-out: H358 Cell Viability assay data (K-Ras G12C, IC50). Format: cell-based. In short, it runs like this:
as §1

In the next assay the target is KRAS G13D (Homo sapiens, UniProt P01116+P62937, G13D). As to the kind of experiment: Disruption of BRAF RBD interaction with Ras (FRET / MOA assay, with Cyclophilin A). Format: biochemical. In short, it runs like this:
(§2)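 TR-FRET: nucleotide-loaded K-Ras mutant or WT with Cyclophilin A and BRAF RBD, compound 10-point 3-fold from 30 μM final, 3 h at 25° C, then anti-His Eu (10 nM) and anti-GST APC (50 nM) for 1.5 h. Decreased FRET ratio versus DMSO gives IC50.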

The target in a further assay is KRAS G12C (Homo sapiens, UniProt P01116+P62937, G12C). The assay is described as above. Format: biochemical. The method in brief:
as §2

A further assay concerns the target KRAS G13C (Homo sapiens, UniProt P01116+P62937, G13C). The assay is described as above. The format is biochemical. In short, it runs like this:
as §2

For the next assay, the target named is NRAS G12C (Homo sapiens, UniProt P01111+P62937, G12C). The assay is described as above. Format: biochemical.
In a further assay the target is KRAS G12S (Homo sapiens, UniProt P01116+P62937, G12S). Described as above. The format is biochemical. In short, it runs like this: as §2
The next assay has as its target KRAS G12D (Homo sapiens, UniProt P01116+P62937, G12D). The description is as above. The format is biochemical. The method in brief:
as §2

A further assay deals with KRAS WT (Homo sapiens, UniProt P01116+P62937). The assay is described as above. The format is biochemical. The method in brief: as §2
In the next assay the target is KRAS G12V (Homo sapiens, UniProt P01116+P62937, G12V). The assay is described as above. The format is biochemical. In short, it runs like this:
as §2

The next assay addresses NRAS WT (Homo sapiens, UniProt P01111+P62937). The assay is described as above. Format: biochemical. Conditions: NRAS WT; read-out: NRAS WT FRET data IC50. In short, it runs like this: (§3)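 IC50 reflects compound-driven Ras:Cyclophilin A ternary complex displacing BRAF RBD, read as lowered TR-FRET ratio relative to DMSO after Eu anti-His (10 nM) and APC anti-GST (50 nM) detection for 1.5 h. Prior incubation 3 h, 25° C, with 12.5 nM GMPPNP-loaded Ras, 50 nM BRAF RBD, 25 μM Cyclophilin A; top compound 30 μM.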

Another assay deals with NRAS Q61K (Homo sapiens, UniProt P01111+P62937, Q61K). The assay is described as above. The format is biochemical. Conditions: NRAS Q61K; read-out: NRAS Q61K FRET data IC50. In short, it runs like this: as §3
For another assay, the target named is NRAS Q61R (Homo sapiens, UniProt P01111+P62937, Q61R). The description is as above. Format: biochemical. Conditions: NRAS Q61R; read-out: NRAS Q61R FRET data IC50. In short, it runs like this: as §3
The next assay addresses KRAS Q61H (Homo sapiens, UniProt P01116+P62937, Q61H). The assay is described as above. Conditions: KRAS Q61H; read-out: KRAS Q61H FRET data IC50. Format: biochemical. In short, it runs like this: as §3
Where [1] appears, read: KRAS G13D, read-out: KRAS G13D FRET data IC50.
Where [2] appears, read: read-out: KRAS G12C FRET data, IC50.
The mark [3] stands for this setting: read-out: KRAS G13C FRET data, IC50.
Setting [4] is: NRAS G12C, read-out: NRAS G12C FRET data IC50.
The mark [5] stands for this setting: read-out: KRAS G12S FRET data, IC50.
The mark [6] stands for this setting: read-out: KRAS G12D FRET data, IC50.
The mark [7] stands for this setting: KRAS WT, read-out: KRAS WT FRET data IC50.
Setting [8] is: KRAS G12V, read-out: KRAS G12V FRET data IC50.

Each structure is given as a SMILES string. Like-named read-outs stand apart in the source and are kept apart here.

NRAS Q61K, sequence (P01111 whole entry Q61K): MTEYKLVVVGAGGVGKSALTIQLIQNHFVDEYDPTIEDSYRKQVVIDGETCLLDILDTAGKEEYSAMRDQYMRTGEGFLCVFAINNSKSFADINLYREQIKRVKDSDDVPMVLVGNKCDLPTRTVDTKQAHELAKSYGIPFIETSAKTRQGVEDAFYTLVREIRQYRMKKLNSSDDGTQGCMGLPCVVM
NRAS Q61K, sequence (P62937 whole entry): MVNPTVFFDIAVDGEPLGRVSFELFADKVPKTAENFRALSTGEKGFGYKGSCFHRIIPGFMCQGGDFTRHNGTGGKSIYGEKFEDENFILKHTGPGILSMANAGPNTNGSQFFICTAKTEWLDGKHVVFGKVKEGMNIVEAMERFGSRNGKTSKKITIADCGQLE
NRAS Q61R, sequence (P01111 whole entry Q61R): as the sequence (P01111 whole entry Q61K) above, with K61R counted along it
NRAS Q61R, sequence (P62937 whole entry): as the sequence (P62937 whole entry) above
KRAS Q61H, sequence (P01116 1-169 isoform P01116-2 Q61H limits assumed): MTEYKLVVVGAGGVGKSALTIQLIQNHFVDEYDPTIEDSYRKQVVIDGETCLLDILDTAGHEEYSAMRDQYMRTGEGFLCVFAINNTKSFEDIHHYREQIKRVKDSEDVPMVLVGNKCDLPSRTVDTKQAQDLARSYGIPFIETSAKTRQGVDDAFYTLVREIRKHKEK
KRAS Q61H, sequence (P62937 whole entry): as the sequence (P62937 whole entry) above
KRAS G12S, sequence (P01116 1-169 isoform P01116-2 G12S limits assumed): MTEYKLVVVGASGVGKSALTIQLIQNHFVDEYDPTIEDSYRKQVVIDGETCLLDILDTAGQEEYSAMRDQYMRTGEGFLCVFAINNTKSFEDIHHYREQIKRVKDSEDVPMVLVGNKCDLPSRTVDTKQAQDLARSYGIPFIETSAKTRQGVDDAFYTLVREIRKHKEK
KRAS G12S, sequence (P62937 whole entry): as the sequence (P62937 whole entry) above
NRAS WT, sequence (P01111 whole entry): as the sequence (P01111 whole entry Q61K) above, with K61Q counted along it
NRAS WT, sequence (P62937 whole entry): as the sequence (P62937 whole entry) above
KRAS G13D, sequence (P01116 1-169 isoform P01116-2 G13D limits assumed): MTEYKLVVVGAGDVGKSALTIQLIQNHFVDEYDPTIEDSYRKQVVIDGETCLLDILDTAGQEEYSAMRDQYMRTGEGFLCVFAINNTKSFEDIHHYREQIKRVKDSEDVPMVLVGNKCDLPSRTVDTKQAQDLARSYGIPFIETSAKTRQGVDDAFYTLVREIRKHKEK
KRAS G13D, sequence (P62937 whole entry): as the sequence (P62937 whole entry) above
KRAS G12D, sequence (P01116 1-169 isoform P01116-2 G12D limits assumed): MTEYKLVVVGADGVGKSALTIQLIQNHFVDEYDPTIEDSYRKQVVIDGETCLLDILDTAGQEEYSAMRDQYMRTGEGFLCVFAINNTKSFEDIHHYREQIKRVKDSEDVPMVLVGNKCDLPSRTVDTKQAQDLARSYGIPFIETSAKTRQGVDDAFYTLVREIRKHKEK
KRAS G12D, sequence (P62937 whole entry): as the sequence (P62937 whole entry) above
KRAS G12V, sequence (P01116 1-169 isoform P01116-2 G12V limits assumed): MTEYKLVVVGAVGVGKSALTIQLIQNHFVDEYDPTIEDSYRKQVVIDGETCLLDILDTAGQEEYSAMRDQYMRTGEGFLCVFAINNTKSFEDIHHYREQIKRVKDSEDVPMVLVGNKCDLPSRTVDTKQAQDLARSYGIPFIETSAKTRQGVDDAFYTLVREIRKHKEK
KRAS G12V, sequence (P62937 whole entry): as the sequence (P62937 whole entry) above
KRAS G13C, sequence (P01116 1-169 isoform P01116-2 G13C): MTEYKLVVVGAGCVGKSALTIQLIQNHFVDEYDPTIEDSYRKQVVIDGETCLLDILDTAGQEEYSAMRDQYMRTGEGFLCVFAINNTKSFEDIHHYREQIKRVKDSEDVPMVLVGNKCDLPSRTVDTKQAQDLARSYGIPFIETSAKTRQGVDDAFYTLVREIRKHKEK
KRAS G13C, sequence (P62937 whole entry): as the sequence (P62937 whole entry) above
KRAS WT, sequence (P01116 1-169 isoform P01116-2 limits assumed): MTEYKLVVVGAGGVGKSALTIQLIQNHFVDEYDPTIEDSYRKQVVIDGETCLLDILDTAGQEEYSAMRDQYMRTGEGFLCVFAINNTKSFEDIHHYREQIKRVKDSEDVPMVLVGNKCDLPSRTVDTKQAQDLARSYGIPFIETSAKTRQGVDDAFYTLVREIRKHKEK
KRAS WT, sequence (P62937 whole entry): as the sequence (P62937 whole entry) above
NRAS G12C, sequence (P01111 whole entry G12C): as the sequence (P01111 whole entry Q61K) above, with G12C, K61Q counted along it
NRAS G12C, sequence (P62937 whole entry): as the sequence (P62937 whole entry) above
KRAS G12C, sequence (P01116 1-169 isoform P01116-2 G12C): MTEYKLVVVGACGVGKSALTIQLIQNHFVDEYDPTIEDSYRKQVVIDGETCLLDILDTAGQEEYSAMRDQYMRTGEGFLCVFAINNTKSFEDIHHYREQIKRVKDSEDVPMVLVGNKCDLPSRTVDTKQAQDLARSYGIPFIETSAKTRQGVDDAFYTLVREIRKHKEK
KRAS G12C, sequence (P62937 whole entry): as the sequence (P62937 whole entry) above

In the case of `CCn1c(-c2cccnc2[C@H](C)OC)c2c3cc(ccc31)-c1csc(n1)C[C@H](NC(=O)[C@H](C(C)C)N(C)C(=O)N1CCN3CCOC[C@H]3C1)C(=O)N1CCC[C@H](N1)C(=O)OCC(C)(C)C2` [Example A548], the IC50 in the assay with Capan-1 (K-Ras G12V) was 0.01 to 0.1 µM; in the assay with NCI-H358 (K-Ras G12C), 0.01 to 0.1 µM; at KRAS G13D (setting [1]), 1 to 10 µM; at KRAS G12C (setting [2]) it was 0.1 to 1 µM; at KRAS G13C (setting [3]), 0.1 to 1 µM; on NRAS G12C (setting [4]) it was 0.1 to 1 µM. The IC50 on KRAS G12S (setting [5]) fell in the range of 1 to 10 µM; on KRAS G12D (setting [6]), 1 to 10 µM; at KRAS WT (setting [7]), 0.1 to 1 µM; at KRAS G12V (setting [8]), 0.1 to 1 µM; on NRAS WT it was 0.1 to 1 µM; on NRAS Q61K, 0.1 to 1 µM. Further, the IC50 at NRAS Q61R and on KRAS Q61H was 0.1 to 1 µM each time.
In the case of `CCn1c(-c2cccnc2[C@H](C)OC)c2c3cc(ccc31)-c1csc(n1)C[C@H](NC(=O)[C@H](C(C)C)N(C)C(=O)N1CCN(C)CC1)C(=O)N1CCC[C@H](N1)C(=O)OCC(C)(C)C2` [Example A570], the IC50 with Capan-1 (K-Ras G12V) fell in the range of 0.01 to 0.1 µM; in the assay on NCI-H358 (K-Ras G12C), 0.01 to 0.1 µM; at KRAS G13D (setting [1]), 0.1 to 1 µM; on KRAS G12C (setting [2]) it was 0.1 to 1 µM; at KRAS G13C (setting [3]), 0.1 to 1 µM; at NRAS G12C (setting [4]), 0.1 to 1 µM. Besides, the IC50 at KRAS G12S (setting [5]) was in the range of 0.1 to 1 µM; at KRAS G12D (setting [6]), 1 to 10 µM; at KRAS WT (setting [7]), 0.1 to 1 µM; on KRAS G12V (setting [8]), 0.1 to 1 µM; on NRAS WT, 0.1 to 1 µM; on NRAS Q61K it was 0.1 to 1 µM. In addition, the IC50 at NRAS Q61R and at KRAS Q61H was 0.1 to 1 µM in each case.
`CCn1c(-c2cccnc2[C@H](C)OC)c2c3cc(ccc31)-c1csc(n1)C[C@H](NC(=O)[C@H](C(C)C)N(C)C(=O)N1CCOC[C@@H]1CN(C)C)C(=O)N1CCC[C@H](N1)C(=O)OCC(C)(C)C2` [Example A572]: the IC50 with Capan-1 (K-Ras G12V) fell in the range of 1 to 10 µM; with NCI-H358 (K-Ras G12C), 0.1 to 1 µM; at KRAS G13D (KRAS G13D FRET data IC50, KRAS G13D), 1 to 10 µM; against KRAS G12C (KRAS G12C FRET data, IC50), 1 to 10 µM; on KRAS G13C (KRAS G13C FRET data, IC50) it was 1 to 10 µM; on NRAS G12C (NRAS G12C FRET data IC50, NRAS G12C), 1 to 10 µM. Besides, the IC50 on KRAS G12S (KRAS G12S FRET data, IC50) lay in the range of 1 to 10 µM; against KRAS G12D (KRAS G12D FRET data, IC50), 1 to 10 µM; on KRAS WT (KRAS WT FRET data IC50, KRAS WT) it was 1 to 10 µM; on KRAS G12V (KRAS G12V FRET data IC50, KRAS G12V) it was 1 to 10 µM; on NRAS WT, 1 to 10 µM; at NRAS Q61K, 1 to 10 µM. The results for the IC50 on NRAS Q61R and at KRAS Q61H were 1 to 10 µM and 0.1 to 1 µM, respectively.
Turning to `CCn1c(-c2cccnc2[C@H](C)OC)c2c3cc(ccc31)-c1csc(n1)C[C@H](NC(=O)[C@H](C(C)C)N(C)C(=O)N1CCC[C@@H](CN(C)C)C1)C(=O)N1CCC[C@H](N1)C(=O)OCC(C)(C)C2` [Example A574], the IC50 in the assay with Capan-1 (K-Ras G12V) is 0.01 to 0.1 µM; with NCI-H358 (K-Ras G12C) it was 0.01 to 0.1 µM; on KRAS G13D (setting [1]), 0.1 to 1 µM; on KRAS G12C (setting [2]) it was 0.01 to 0.1 µM; on KRAS G13C (setting [3]) it was 0.1 to 1 µM; on NRAS G12C (setting [4]) it was 0.01 to 0.1 µM. The IC50 on KRAS G12S (setting [5]) lay within 0.1 to 1 µM; on KRAS G12D (setting [6]), 0.1 to 1 µM; at KRAS WT (setting [7]), 0.01 to 0.1 µM; at KRAS G12V (setting [8]), 0.1 to 1 µM; at NRAS WT, 0.01 to 0.1 µM; on NRAS Q61K, 0.01 to 0.1 µM. The IC50 fell in the range of 0.1 to 1 µM at NRAS Q61R and 0.01 to 0.1 µM at KRAS Q61H.
